Values joined by “and” are separate entries in the source; they are usually repeats but may differ in a detail not shown here. Equal values may be shown once.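 Assay format: 96-well plates, 48-hour exposure. Here, GI50 denotes the concentration required for 50% inhibition of growth. TGI: total growth inhibition.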 Where a SMILES comes first, the peptide text is derived from it.
How the values were obtained:
Assay in all cases: DTP human tumour cell line panel, 48 h
SN12C renal = system: SN12C renal
IGROV1 ovarian = system: IGROV1 ovarian
MOLT-4 leukemia = system: MOLT-4 leukemia
A498 renal = system: A498 renal
SNB-19 CNS = system: SNB-19 CNS
M14 melanoma = system: M14 melanoma
SW-620 colon = system: SW-620 colon
OVCAR-8 ovarian = system: OVCAR-8 ovarian
COLO 205 colon = system: COLO 205 colon
ACHN renal = system: ACHN renal
RXF 393 renal = system: RXF 393 renal
UACC-257 melanoma = system: UACC-257 melanoma
NCI/ADR-RES ovarian = system: NCI/ADR-RES ovarian
MDA-MB-435 = system: MDA-MB-435

| SMILES | TGI (SN12C renal) [µM] | TGI (IGROV1 ovarian) | TGI (MOLT-4 leukemia) [µM] | TGI (A498 renal) | TGI (SNB-19 CNS) [µM] | TGI (M14 melanoma) [µM] | TGI (SW-620 colon) [µM] | TGI (OVCAR-8 ovarian) [µM] | TGI (COLO 205 colon) | TGI (ACHN renal) [µM] | TGI (RXF 393 renal) [µM] | TGI (UACC-257 melanoma) [µM] | TGI (NCI/ADR-RES ovarian) | TGI (MDA-MB-435) [µM] | GI50 (RXF 393 renal) [µM] | GI50 (IGROV1 ovarian) [µM] | GI50 (NCI/ADR-RES ovarian) [µM] | GI50 (A498 renal) [µM] | GI50 (OVCAR-8 ovarian) [µM] | GI50 (COLO 205 colon) |
| --- | --- | --- | --- | --- | --- | --- | --- | --- | --- | --- | --- | --- | --- | --- | --- | --- | --- | --- | --- | --- |
| COC(=O)c1ccc(/C=C2\N=C(C)OC2=O)cc1 | > 100 | > 100 µM | > 100 | > 100 µM | > 100 | > 100 | > 100 | > 100 | > 100 µM | > 100 | – | – | – | – | – | – | – | – | – | – |
| C=CCn1c(=O)n(CC=C)c(=O)n(CC=C)c1=O | > 100 | > 100 µM | > 100 | > 100 µM | > 100 | > 100 | > 100 | > 100 | > 100 µM | > 100 | > 100 | > 100 | – | – | – | – | – | – | – | – |
| O=C1NC(=O)C(CCO)(c2ccccc2)C(=O)N1 | > 100 | > 100 µM | > 100 | > 100 µM | > 100 | – | > 100 | > 100 | > 100 µM | – | > 100 | > 100 | > 100 µM | – | – | – | – | – | – | – |
| O=C(c1ccccc1)c1c(-c2ccccc2)[nH]n(-c2ccc([N+](=O)[O-])cc2)c(=O)c1=O | > 100 | > 100 µM | > 100 | > 100 µM | > 100 | > 100 | > 100 | > 100 | > 100 µM | > 100 | > 100 | > 100 | > 100 µM | > 100 | – | – | – | – | – | – |
| Clc1ccc(Cl)c(Nc2ccnc(SCc3ccccc3)n2)c1 | > 100 | > 100 µM | > 100 | > 100 µM | > 100 | > 100 | > 100 | > 100 | > 100 µM | > 100 | 79.4 | > 100 | > 100 µM | > 100 | – | – | – | – | – | – |
| Cc1cc(C)cc(C(=N)c2ccccc2Cc2cccc3ccccc23)c1 | 34.8 | 34.9 µM | 30.8 | 87.3 µM | 43 | 40.1 | 31.8 | 34.1 | 52.3 µM | 31.2 | 31.9 | 64.1 | 46.3 µM | 32.9 | – | – | – | – | – | – |
| CCOC(=O)c1csc(NC(=O)C(C)N2CCCCC2)n1 (stereo unspecified) | – | > 100 µM | > 100 | > 100 µM | > 100 | > 100 | > 100 | > 100 | > 100 µM | > 100 | > 100 | > 100 | > 100 µM | > 100 | – | – | – | – | – | – |
| COc1ccc(C[N+]23C(CC[C@H]2c2ccccc2)CC[C@H]3c2ccccc2)cc1 (stereo partly specified) | > 100 | 36.5 µM | 90.1 | > 100 µM | > 100 | 42.4 | > 100 | > 100 | 21.4 µM | > 100 | 35.3 | 50.5 | – | 26.4 | – | – | – | – | – | – |
| COc1ccnc2c1C(=O)c1nc3ccccc3c3ccnc-2c13 | 0.535 | 0.704 µM | 7.32 | 0.0803 µM | 0.562 | 0.272 | – | 0.224 | 0.723 µM | 0.41 | 0.86 | 0.536 | 0.147 µM | 1.52 | – | – | – | – | – | – |
| O=c1c(-c2ccccc2)c(SCCCN2CCN(c3cccc(Cl)c3)CC2)n(-c2ccccc2)c(=S)n1-c1ccccc1 | – | > 100 µM | > 100 | > 100 µM | – | – | > 100 | > 100 | > 100 µM | > 100 | > 100 | > 100 | > 100 µM | 42.4 | – | – | – | – | – | – |
| C[C@H]1[C@H](C)CC[C@]2(C)CC[C@]3(C)C(=C[C@@H](O)[C@@H]4[C@@]5(C)[C@H](O)[C@@H](O)[C@H](O)C(C)(C)[C@@H]5CC[C@]43C)[C@H]12 | > 100 | > 100 µM | > 100 | > 100 µM | > 100 | > 100 | > 100 | > 100 | > 100 µM | > 100 | > 100 | > 100 | > 100 µM | > 100 | 0.361 | – | – | – | – | – |
| CCC(C)C(NC(=O)C(CCCCN)NC(=O)C(NC(=O)C(CCC(N)=O)NC(=O)C(N)CCCNC(=N)N)C(C)CC)C(=O)NC(Cc1c[nH]c2ccccc12)C(=O)NC(Cc1ccccc1)C(=O)NC(CCC(N)=O)C(=O)NC(CC(N)=O)C(=O)NC(CCCNC(=N)N)C(=O)NC(CCCNC(=N)N)C(=O)NC(CCSC)C(=O)NC(CCCCN)C(=O)NC(Cc1c[nH]c2ccccc12)C(=O)NC(CCCCN)C(=O)NC(CCCCN)C(=O)N1CCCC1C(=O)NC(C)C(=O)NC(CCCCN)C(=O)NC(CCCNC(=N)N)C(=O)NC(CCCCN)C(=O)NC(CC(C)C)C(=O)NC(Cc1ccccc1)C(=O)NCC(=O)O (stereo unspecified) (H-RQIKIWFQNRRMKWKKPAKRKLFG-OH; configuration not given here) | > 25 | > 25 µM | > 25 | – | > 25 | > 25 | > 25 | > 25 | > 25 µM | > 25 | > 25 | > 25 | > 25 µM | > 25 | – | – | – | – | – | – |
| CCCCCC(C[N+]1(C)CCOCC1)C(=O)/C=C/c1ccccc1 (stereo unspecified) | 28.6 | 40.1 µM | 27.4 | 31.7 µM | 24.5 | 25.9 | 7.51 | 39.3 | 35.9 µM | 60.8 | 28.2 | 27.6 | – | – | – | – | – | – | – | – |
| CN(C)C(=O)OCOC(=O)N(C)C | > 100 | > 100 µM | > 100 | > 100 µM | > 100 | – | > 100 | > 100 | > 100 µM | – | > 100 | > 100 | > 100 µM | – | – | – | – | – | – | – |
| CCCCN1C=CN2c3nc4cc(C)c(C)cc4n3C(C(=O)OC)=C(C(=O)OC)C12 (stereo unspecified) | > 100 | > 100 µM | > 100 | – | > 100 | > 100 | > 100 | > 100 | – | > 100 | > 100 | > 100 | – | – | – | – | – | – | – | – |
| COC(=O)C1OC(Oc2cc(O)c3c(=O)cc(-c4ccc(O)cc4)oc3c2)C(O)C(O)C1O (stereo unspecified) | > 100 | > 100 µM | > 100 | > 100 µM | > 100 | – | > 100 | > 100 | > 100 µM | – | > 100 | > 100 | > 100 µM | – | – | – | – | – | – | – |
| OCC1OC(n2cnc3c2NC=NC[C@H]3O)C(O)C1O (stereo partly specified) | > 450 | > 450 µM | > 450 | > 450 µM | > 450 | – | > 450 | > 450 | > 450 µM | – | > 450 | > 450 | > 450 µM | – | – | – | – | – | – | – |
| CN(C)C(=O)NCCN1CCCCCc2ccccc21 | > 100 | > 100 µM | > 100 | > 100 µM | > 100 | > 100 | > 100 | > 100 | > 100 µM | > 100 | > 100 | > 100 | > 100 µM | > 100 | – | – | – | – | – | – |
| CCOC(=O)C(N)CSC(=O)NC (stereo unspecified) | 213 | 481 µM | 215 | 594 µM | 600 | 275 | 308 | 314 | 360 µM | 510 | 337 | 535 | 362 µM | 98.4 | – | – | – | – | – | – |
| CC1=CC(C2/C(=N/O)C=C(C)CC2(C)C)C(O)C(C)(C)C1 (stereo unspecified) | 33.3 | 32.6 µM | 31.3 | 33.3 µM | 29.5 | 28.9 | 41.8 | 33.8 | 36 µM | 34 | 30 | 30.1 | 33.5 µM | 31.2 | – | – | – | – | – | – |
| C=C1C(=O)O[C@H]2[C@H]1[C@@H](OC(=O)C=C(C)C)CC1=C[C@@H](C[C@@]3(C)O[C@@H]23)OC1=O | 12.7 | 27 µM and 34.4 µM | 77.4 | 26.5 µM and 39.2 µM | 55.3 | – | 2.77 | 7.5 | 2.49 µM and 4.17 µM | – | 3.82 | 6.88 | 6.18 µM and 13.4 µM | – | – | 14.2 | 3.89 | 21.3 | 1.99 | 0.993 µM and 2.27 µM |

— PubChem BioAssay (NCI)
